PMC9518248, “Inhibition of Toxoplasma gondii by 1,2,4-triazole-based compounds: marked improvement in selectivity relative to the standard therapy pyrimethamine and sulfadiazine” (Journal of Enzyme Inhibition and Medicinal Chemistry, 2022)
Values after ≈ are worked out from the molar mass of the structure shown. “Also recorded” adds a separate entry of the source.

Columns and labels:
T. gondii RH-GFP = assay: Antiparasitic assay: T. gondii RH-GFP proliferation in Hs27 cells; type: cell-based, Toxoplasma gondii
[1] = system: T. gondii tachyzoites of the RH-GFP strain; assay: Toxoplasma tachyzoites invasion assay (Assay A); conditions: 3 h pre-treatment at 35.35, 70.70 and 176.75 μg/mL, then 24 h treatment-free
Protocol: The Hs27 cells were cultured on Lab-Tek™ 4-well Chamber Slides (Nunc) (5 × 10^4 cells/500 μL per well).
Then, the cells were washed to remove extracellular parasites and parasite culture medium (without any compounds) was added for 24 h.
In both assays as the control, Hs27 cells were infected, but not treated. After subsequent 24 h of incubation (Assay A and B), the slides were washed with sterile PBS, fixed with formaldehyde solution (252549, Sigma-Aldrich), 3.7% in PBS for 20 min, and stained with DAPI for 10 min (1 mg/mL, ThermoFisher Scientific, Waltham, MA). Microscopic analysis of 100 cells in turn, comprised of counting the infected cell ratio and tachyzoites per each parasitophorous vacuoles of infected cell, was performed using a fluorescent microscope (Axio Scope.A1, Carl Zeiss, Germany) at a magnification ×1000. For image processing ZEISS ZEN Microscope Software version 3.1 (Oberkochen, Germany) was used. Three independent experiments on triplicate chamber slides using the same conditions for both assays were performed.

Human Hs27 cells = assay: Genotoxic activity, single cell gel electrophoresis (comet assay); type: cell-based; conditions: 24 h, concentration equal to IC50Tg
Protocol: All the procedures performed were in line with the manufacturer’s protocol. Human Hs27 cells, previously exposed for 24 h to the compound, were combined with liquefied low melting Agarose at 37 °C and transferred onto the OxiSelect comet slides. After storing for 15 min at 4 °C, the slides were immersed in a pre-chilled Lysis Buffer (for 45 min at 4 °C) and Alkaline Solution (for 30 min at 4 °C). Afterwards, the Alkaline Solution was replaced with pre-chilled TBE electrophoresis solution. After immersing for 5 min, the slides were put into the horizontal electrophoresis chamber and covered with TBE electrophoresis buffer. The electrophoresis was run for 15 min at 1 volt/cm. Finally, DNA was stained with Vista Green DNA Dye for 15 min at room temperature and observed under fluorescence microscope (Olympus BX63, Tokyo, Japan). The images of cells were captured using XM10 digital camera (Olympus). The DNA damage was measured quantitatively using OpenComet software. At least 50 randomly selected images were used in each analysis.

[2] = system: T. gondii tachyzoites of the RH-GFP strain; assay: Intracellular Toxoplasma tachyzoites proliferation assay (Assay B); type: cell-based, Toxoplasma gondii; conditions: 3 h infection, then 24 h treatment at 35.35, 70.70, 176.75 μg/mL; dose-dependent
[3] = system: human glioblastoma T98G cells; assay: Cytotoxicity against glioblastoma cells (MTT); type: cell-based; conditions: 24 h
Protocol: (§1) Cytotoxic effect of 20b was evaluated using glioblastoma (T98G) cells obtained from the American Type Culture Collection (Manassas, VA). Cells were cultured in Dulbecco’s Modified Eagle’s Medium (DMEM-high glucose) (Sigma Aldrich, St. Louis, MO), supplemented with 10% heat inactivated FBS, penicillin (100 U/mL), and streptomycin (100 μg/mL) (Sigma Aldrich, St. Louis, MO). Cells were maintained in a humidified atmosphere of 5% CO2 and 95% air at 37 °C. Stock solutions of the investigated compounds (20b and temozolomide) were prepared by dissolving solid substances in a sterile DMSO. T98G glioblastoma cells were seeded into 96-well sterile plates at a density of 1 × 10^5cells/mL. After 24 h of incubation, the medium was removed from each well and then cells were incubated for the next 24 h with different concentrations of the investigated compounds (10, 25, 35, 50, and 100 µg/mL) in the medium containing 2% FBS. Viability of T98G cells was evaluated using MTT assay, whose principle is based on the conversion of 3–(4,5-dimethylthiazol-2-yl)-2,5-diphenyltetrazolium bromide (MTT) into dark-blue formazan crystals. In brief, after 24 h incubation of cells with varying concentrations of the tested compounds, culture medium was removed from the plate. Cells were washed with PBS, and then 100 µL of medium containing 10% MTT solution (5 mg/mL) was added to each well. After 3 h incubation, 100 µL (per well) of 10% SDS buffer solution was added to solubilise formazan crystals. After overnight incubation the absorbance was measured at 570 nm using a microplate reader (Epoch, BioTek Instruments, Winooski, VT). Experiments were repeated three times, and the measurements in each experiment were run in quadruplicate. Viability of the investigated cells was expressed as % of the viability of the untreated cells.

[4] = Cytotoxicity against glioblastoma cells (MTT); type: cell-based, human; conditions: human, T98G glioblastoma cells, MTT, read-out: Viability of T98G cells (% of control ± SD)
Protocol: as §1

PAMPA-BBB assay = type: in vitro ADME
Protocol: BBB permeability of 20b was investigated using a parallel artificial membrane permeability assay (PAMPA) method. The PAMPA system, consisted of a 96-well microfilter plate, was divided into two chambers: a donor at the bottom and an acceptor at the top, separated by a 120-μm-thick microfilter disc coated with BBB lipid solution (Pion, Inc., Billerica, MA). The solutions of 20b were prepared in dimethylsulphoxide (DMSO) at 4 mg/mL concentration and then diluted with Prisma buffer (pH = 7.4) to obtain the donor drug solution with the final nominal concentration of 20 μg/mL. Then, 180 μL of the donor solution were added to the donor wells. Subsequently, each filter membrane of the top plate was coated with 5 μL BBB-1 lipid solution (Pion Inc.) and the acceptor well was filled with 200 μL of Brain Sink Buffer (BSB). The acceptor plate and the donor plate were sandwiched together and incubated at 37 °C for 180 min.
The permeability coefficient value (Pe) was calculated by using the following equation: Pe=−ln(1−CA/Cequilibrium)/S×(1/VD+1/VA)×t where VD – donor volume, VA – acceptor volume, Cequilibrium – equilibrium concentration, Cequilibrium=CD×VD+CA×VA/VD+VA, CD – donor concentration, CA – acceptor concentration, S – membrane area, and t – incubation time (in seconds).

[5] = system: Human red blood cells (RBCs); assay: Haemolytic activity determination; type: cell-based; conditions: at the concentration equal to its IC50Tg
Protocol: (§2) Human red blood cells (RBCs) concentrate was obtained from the Regional Blood Donation and Transfusion Centre (Lublin, Poland). RBCs concentrate (5 mL) was washed three times with sterile PBS and centrifuged at 500 g for 3 min. […] The amount of free haemoglobin in supernatants was measured spectrophotometrically at 405 nm. Negative and positive controls were performed by incubating RBCs with sterile PBS and 0.1% Triton-X, respectively. Each experiment was run in triplicate.

[6] = Haemolytic activity determination; type: cell-based; conditions: 2% suspension of human red blood cells, human RBCs, 37 °C, 30 min, read-out: Haemolysis (%)
Protocol: as §2

[7] = system: Tyrosinase (TYR) from mushrooms; assay: Inhibition of tyrosinase activity assay; type: biochemical; conditions: for Diphenolase activity: substrate DOPA; for Monophenolase activity: substrate L-tyrosine
Protocol: Tyrosinase (TYR) from mushrooms ([…], Sigma) was used in our study. We analysed inhibition of 20 b on both monophenolase and diphenolase activity of TYR. All compound dilutions, both substrate L-tyrosine (Tyr) and levodopa (DOPA), and TYR were prepared in 50 mM phosphate buffer (pH 6.5). […] Firstly, the substrate and compound were added to a 96-well flat-bottom plate (Nunc MaxiSorp^TM, Roskilde, Denmark), next TYR was added and the initial absorbance (A0) was measured spectrophotometrically at 492 nm. Then, the plate was incubated at 25 °C for 30 min. After incubation, the amount of dopachrome produced in the reaction mixture was determined spectrophotometrically at 492 nm (A30) using the multi-mode microplate reader SpectraMax® i3. As 100% TYR activity samples without addition of compound, were used. The average results from three experiments are shown.

[8] = 1 µM, % of activity without compound

Compound: COc1ccc(-n2c(-c3[nH]cnc3C)n[nH]c2=S)cc1 [20b]
- selectivity (SI) relative to PYR (T. gondii RH-GFP; SI of compound vs SI of PYR): 11 fold
- selectivity (SI) relative to SDZ (T. gondii RH-GFP; SI of compound vs SI of SDZ): 160 fold
- selectivity (SI) relative to TRI (T. gondii RH-GFP; SI of compound vs SI of TRI): 4 fold
- IC50 (T. gondii RH-GFP; Toxoplasma gondii, T. gondii RH-GFP in Hs27 cells, 96 h, values above highest tested concentration extrapolated, read-out: IC50Tg): 35.4 µg/mL (≈ 123 µM)
- SI (T. gondii RH-GFP; selectivity index, CC30 (L929)/IC50Tg): 70.72
- parasite invasion: percentage of infected cells [1]: did not cause significant reductions in percentage of infected cells
- % DNA in comet tail (Human Hs27 cells): 3.38 ± 0.45%
- genotoxic effect (DNA damage) (Human Hs27 cells): no induction of DNA damage; also recorded: no genotoxic effect
- intracellular proliferation: size of PV and number of tachyzoites per PV [2]: significant reduction in both size of the PV and number of intra vacuolar tachyzoites
- reduction of T98G cell viability ([3]; 10 µg/mL): ~6%
- reduction of T98G cell viability ([3]; 100 µg/mL): ~24%
- viability at 24 h, 10 µg/mL ([4]; 10 µg/mL): 94.2 ± 2.06%
- viability at 24 h, 25 µg/mL ([4]; 25 µg/mL): 92 ± 3.27%
- viability at 24 h, 35 µg/mL ([4]; 35 µg/mL): 87.15 ± 0.55%
- viability at 24 h, 50 µg/mL ([4]; 50 µg/mL): 82.1 ± 1.73%
- viability at 24 h, 100 µg/mL ([4]; 100 µg/mL): 76.26 ± 0.74%
- BBB permeation classification (PAMPA-BBB assay; CNS+ if Pe > 5.19, CNS− if Pe < 2.07 (× 10^−6 cm·s^−1)): centrally active
- Papp at 180 min, 20 μg/mL (PAMPA-BBB assay; pH 7.4, 37 °C, 180 min, read-out: permeability coefficient Pe): 34.9 ± 2.73 ×10⁻⁶ cm/s
- haemolytic activity [5]: no specific haemolytic activity; also recorded: no specific haemolytic changes
- hemolysis at 30 min, 5 µg/mL ([6]; 5 µg/mL): 0.038 ± 0.007%
- hemolysis at 30 min, 10 µg/mL ([6]; 10 µg/mL): 0.104 ± 0.042%
- hemolysis at 30 min, 35 µg/mL ([6]; 35 µg/mL): 0.183 ± 0.086%
- Diphenolase activity [7, 8]: 94.6 ± 3.3%
- Monophenolase activity [7, 8]: 101.76 ± 4.69%
- Diphenolase activity ([7]; 10 µM): 99.6 ± 0.7%
- Monophenolase activity ([7]; 10 µM): 99.01 ± 1.79%
- Diphenolase activity ([7]; 25 µM): 92.7 ± 1.7%
- Monophenolase activity ([7]; 25 µM): 92.97 ± 2.54%
- Diphenolase activity ([7]; 50 µM): 91.2 ± 1.2%
- Monophenolase activity ([7]; 50 µM): 90.66 ± 4.29%
- Diphenolase activity ([7]; 100 µM): 75.3 ± 7.8%
- Monophenolase activity ([7]; 100 µM): 70.81 ± 2.18%
- Diphenolase activity ([7]; 200 µM): 52.7 ± 6.8%
- Monophenolase activity ([7]; 200 µM): 46.79 ± 4.31%
- Diphenolase activity ([7]; 400 µM): 25.7 ± 12.8%
- Monophenolase activity ([7]; 400 µM): 23.09 ± 8.35%
- inhibitory effect on tyrosinase activity ([7]; at concentrations below 50 µM): < 10%
